From patent US20080020077A1, “Association Of Vegetal Extracts Based On Gooseberries, Black Orchids And Black Tulips And Topical Composition Comprising The Association Of Said Vegetal Extracts” (priority 2004, published 2008)

System: collagen
Assay: Collagen content of human fibroblasts (hydroxyproline by reverse-phase HPLC)
Assay type: cell-based
Conditions: positive reference, versus control
Experimental: For this study, the fibroblasts were cultured in the same way as in paragraph 1.4.1. After the incubation period, the fibroblasts were recovered by centrifugation. The pellets were digested with […] (1 mg/cell pellet) in […] acetic acid for 24 hours at 4° C. After centrifugation at 10 000 g, the collagens were precipitated with 1 M sodium chloride (NaCl), and the precipitate was resuspended and then dialyzed. The primary amino acids were derivatized with o-phthaldehyde (OPA) acid, thus eliminating their interference. Hydroxyproline and proline were then derivatized with NBD-Cl by coupling the amino groups to NBD-CL. The NBD-Hyp was separated and identified by reverse-phase HPLC. […] The mobile phase is pre-filtered and then degassed before use. • The solutions are prepared in the following way: […] The standard curve is prepared from a solution of hydroxyproline at 50 mg/l. Successive dilutions make it possible to obtain solutions ranging from 0.5 to 40 mg/l. The derivatization and the establishment of the standard curve are carried out using 10 μl of a standard solution at various concentrations, mixed with 10 μl of the buffer. After the addition of 5 μl of OPA and agitation, the tubes are kept at ambient temperature for 5 min and then 10 μl of the NBD-Cl solution are added. […] The tubes are then removed and the orange coloration makes it possible to verify the derivatization. […]

O=C1O[C@H]([C@@H](O)CO)C(O)=C1O [Vit C, vitamin C]
% incorporation: +61%
